Results: patent US8618068B2, “Methods and low dose regimens for treating red blood cell disorders” (priority 2009, dated 2013)

Columns and labels:
[1] = Dose range-finding embryo/fetal developmental toxicity in rats; assay type: in vivo
Description: DMB was administered orally by gavage to 4 groups of 8 bred female Sprague Dawley rats once daily from gestation Days 6 through 17, at dosage levels of 50, 150, 500 and 1000 mg/kg/day. […] On gestation Day 20, a laparohysterectomy was performed on each surviving female.

γ globin chain = γ globin chain protein synthesis in anemic baboons; assay type: in vivo; conditions: mean of three animals
Description: (§1) Expression of γ-globin and erythroid cell production was evaluated in a primate model in which baboons are phlebotomized on a daily basis to simulate the chronic RBC destruction associated with hemoglobinopathies. In this model, baboons, aged 2 to 3 years, had 2.5 to 7 mL/kg of blood withdrawn daily, and the volume replaced with an identical volume of normal saline. Hemoglobin levels were lowered relative to control levels, but were maintained between 6.5 to 7.5 g/dL, the level necessary for the modulation of globin genes in this animal species. The animals were supplemented with iron dextran and folic acid. The phlebotomy regimen effectively exchanged the animals' total blood volume every 10 to 20 days.
(§2) Globin chain protein synthesis was measured in DMB treated animals using ^3H-leucine-labeled reticulocytes before and 2 and 4 days after treatment. Complete blood counts and reticulocyte counts were monitored 3 times per week and plasma concentrations of the test article was determined. DMB was administered intravenously (IV, daily) or orally via nasogastric gavage under light anesthesia (on 3 alternating days per week for up to 6 weeks), on a dose-escalation schedule with starting doses of 500 to 800 mg/kg. If γ globin induction was observed, lower doses (40-200 mg/kg) were tested. Recombinant human erythropoietin (rhu-EPO) was also administered in separate treatment courses to 2 baboons at doses of 300 U/kg three times per week subcutaneously as a positive control for the erythropoietic effects of DMB. Treatments were performed in individual baboons.
Induction of γ globin chain expression was evaluated by measuring γ globin protein synthesis.

F-reticulocytes = experiment: F-reticulocyte production in anemic baboons; assay type: in vivo
Description: as §1, §2
In the anemic baboon model, increases in F-reticulocytes were usually observed within 2-3 days of treatment initiation and diminished within 3 to 5 days of treatment cessation.

human γ-globin mRNA = experiment: Human γ-globin mRNA synthesis in βYAC transgenic mice; assay type: in vivo; conditions: IP 500 mg/kg/day
Description: Transgenic mice containing the human β globin gene locus in a yeast artificial chromosome (βYAC) displaying the correct developmental regulation of ε-, γ-, and β-globin genes (with a silenced y-globin gene in the adult stage) were used to study the effects of DMB on γ-globin induction and erythroid cell production. In the μLCR-human A γ-globin transgenic mice, the y-globin mRNA expression relative to murine α-globin mRNA was increased by a mean of 1.8-fold above the baseline after treatment with DMB. In the βYAC transgenic mice at intraperitoneal (IP) doses of 500 mg/kg/day, DMB induced a 2-fold increase in human γ-globin mRNA synthesis relative to that of total non-α-globin. This level of induction was similar to that seen with 1,000 mg/kg/day of butyrate, and the changes were observed from 3 days after treatment initiation and persisted until 3 to 5 days after treatment termination.

[2] = Phase 1 repeat-dose clinical study, safety; assay type: in vivo, human
Description: DMB was evaluated in a phase 1, placebo-controlled, randomized, repeat dose clinical study that evaluated tolerability, safety, and pharmacokinetics in healthy volunteers. A total of 41 subjects (31 receiving active drug and 10 receiving placebo) completed 14 consecutive days of study medication at daily dose levels of 5, 10 or 15 mg/kg (10 subjects received placebo). Given the importance of iron in red blood cell production, and the requirement for iron supplementation for induction of HbF with other erythropoietic agents, subjects at all 3 dose levels received oral ferrous gluconate on the study medication days. DMB was administered with food to all but one group (5 mg/kg, cohort 1). Subjects were admitted and observed for 24 hours following initial dosing. Thereafter, the study drug was taken once per day at home, except for the last study day. The subjects were monitored weekly for 6 weeks. Thirty-seven subjects completed the study and 4 subjects dropped out due to conflicts. Safety and PK data are available on these subjects.
The treatment groups included: Cohort 1: 5 mg/kg fasting, 6 active, 2 placebo; Cohort 2: 5 mg/kg with food, 7 active, 2 placebo (3 drop outs); Cohort 3: 5 mg/kg with food and iron supplements, 6 active, 2 placebo (1 drop out); Cohort 4: 10 mg/kg with food and iron supplements, 6 active, 2 placebo; and Cohort 5: 15 mg/kg with food and iron supplements, 6 active, 2 placebo. Subjects in Cohorts 3, 4, and 5 received a single daily dose of ferrous gluconate (325 mg). The iron supplement was administered to evaluate study medication tolerability when taken with iron. No subjects discontinued due to AEs or safety concerns. Fewer subjects reported an event in the highest dose cohort following eating a meal ([…]) than were reported in the lower dose cohorts ([…], 5 and 10 mg/kg).
The AEs observed in this study are described in Table 11. All events were assessed as mild by the Principal Investigator and resolved either on study or post study. No SAEs were reported. Two subjects had transient lymphadenopathy that were not considered related to study medication. No laboratory abnormalities of significance were noted except one patient developed a urinary tract infection. No clinically significant ECG abnormalities were noted.

Compound: CCC(C)(C)C(=O)[O-].[Na+] [DMB, Sodium 2,2-dimethylbutyrate]
- maternal or fetal effects ([1]; 50 mg/kg/day): No maternal or fetal effects
- postimplantation loss ([1]; 150 mg/kg/day): Increased postimplantation loss
- acceptability of dosage for a definitive embryo/fetal developmental toxicity study ([1]; rat, in vivo): considered unacceptable
- Increase % γ Globin Chain Synthesis (γ globin chain): 6.6%
- Increase Fold (γ globin chain synthesis) (γ globin chain): 2.9
- % γ Globin Chain Synthesis, Treatment (γ globin chain; baseline 3.4): 10.0%
- F-reticulocytes Mean Fold Increase (F-reticulocytes; 150 mg/kg/day, IV, 5 days): 5
- F-reticulocytes Mean Fold Increase (F-reticulocytes; 200 mg/kg/day, IV, 5 days/wk): 15
- F-reticulocytes Mean Fold Increase (F-reticulocytes; 500 mg/kg/2nd day, Oral, 5 days/wk, 2 wks): 3.8
- F-reticulocytes Mean Fold Increase (F-reticulocytes; 500-700 mg/kg/2nd day, Oral): 3.8
- increase in human γ-globin mRNA synthesis relative to total non-α-globin (human γ-globin mRNA): 2 fold
- SAEs reported ([2]; 5, 10, 15 mg/kg for 14 days): No SAEs
- dose limiting toxicity ([2]; 5, 10, 15 mg/kg for 14 days): No dose limiting toxicity
- tolerability ([2]; 5 to 15 mg/kg/day for 14 consecutive days): well-tolerated
- Subject incidence of Abdominal pain ([2]; DMB N = 31): 3%
- Subject incidence of Contusion of elbow ([2]; DMB N = 31): 3%
- Subject incidence of Diarrhea ([2]; DMB N = 31): 6%
- Subject incidence of Fatigue ([2]; DMB N = 31): 3%
- Subject incidence of Flatulence ([2]; DMB N = 31): 6%
- Subject incidence of Gastritis ([2]; DMB N = 31): 3%
- Subject incidence of Gastroenteritis ([2]; DMB N = 31): 3%
- Subject incidence of Headache ([2]; DMB N = 31): 23%
- Subject incidence of Light-headedness ([2]; DMB N = 31): 3%
- Subject incidence of Lymphadenopathy, inguinal ([2]; DMB N = 31): 3%
- Subject incidence of Menstrual cramps ([2]; DMB N = 31): 6%
- Subject incidence of Nausea ([2]; DMB N = 31): 6%
- Subject incidence of Pharyngeal erythema ([2]; DMB N = 31): 3%
- Subject incidence of Pharyngitis ([2]; DMB N = 31): 6%
- Subject incidence of Pregnancy ([2]; DMB N = 31): 3%
- Subject incidence of Reflux esophagitis ([2]; DMB N = 31): 3%
- Subject incidence of Spasm, esophageal ([2]; DMB N = 31): 3%
- Subject incidence of Sunburn ([2]; DMB N = 31): 3%
- Subject incidence of Upper respiratory infection ([2]; DMB N = 31): 3%
- Subject incidence of Urinary tract infection ([2]; DMB N = 31): 3%
- Subject incidence of Vaginal candidiasis ([2]; DMB N = 31): 3%
